Source: patent publication EP0366385A1, “Guanine derivatives having antiviral activity and their pharmaceutically acceptable salts” (THE WELLCOME FOUNDATION LIMITED, priority 1988, dated 1990)

System: HIV
Experiment: Antiviral activity against HIV (method of Mitsuya et al.)
Format: cell-based
Conditions: Human immunodeficiency virus 1, read-out: IC₅₀
Experimental: The title compound of Example 1G (L-valine ester) and the title compound of Example 1F (the 1S, 4R enantiomeric form of carbovir) were tested for activity against HIV generally in accordance with the method described by Mitsuya et al, Proc. Natl. Acad. Sci. Vol. 82, pp 7096-7100, Oct. 1985 and found to have activity against HIV at the following concentrations

IC50: 2500 nM
SMILES: Nc1nc2c(ncn2[C@H]2C=C[C@@H](CO)C2)c(=O)[nH]1 [Example 1F, (1R, 4S)-9-(4-Hydroxymethyl-2-cyclopentenyl)guanine]
